Data reported in ChEMBL document CHEMBL4477270, “Design, synthesis, and protein methyltransferase activity of a unique set of constrained amine containing compounds” (Bioorg Med Chem Lett, 2016).

Columns and labels:
[1] = biological target: T1, Histone-lysine N-methyltransferase SUV39H1 (Homo sapiens) (UniProt O43463); experiment: Inhibition of SUV39H1 (unknown origin) using biotin-labeled histone substrate assessed as residual activity at 50 uM in presence of [3H-Me]SAM by scintillation proximity assay relative to control
T1 sequence (whole entry): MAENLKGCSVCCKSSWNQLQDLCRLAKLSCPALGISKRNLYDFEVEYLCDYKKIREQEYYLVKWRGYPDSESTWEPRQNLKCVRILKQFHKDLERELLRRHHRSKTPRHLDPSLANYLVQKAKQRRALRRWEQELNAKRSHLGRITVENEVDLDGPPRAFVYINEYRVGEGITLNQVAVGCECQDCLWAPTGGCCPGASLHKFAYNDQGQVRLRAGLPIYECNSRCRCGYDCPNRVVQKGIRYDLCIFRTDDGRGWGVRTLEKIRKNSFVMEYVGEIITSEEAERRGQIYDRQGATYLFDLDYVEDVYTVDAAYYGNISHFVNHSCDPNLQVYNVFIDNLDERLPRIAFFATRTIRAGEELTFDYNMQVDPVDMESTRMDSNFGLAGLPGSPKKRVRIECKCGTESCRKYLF

[2] = biological target: Histone-lysine N-methyltransferase 2A (Homo sapiens) (UniProt Q03164); experiment: Inhibition of MLL1 (unknown origin) using biotin-labeled histone substrate assessed as residual activity at 50 uM in presence of [3H-Me]SAM by scintillation proximity assay relative to control
[3] = biological target: Histone-lysine N-methyltransferase EZH2 (Homo sapiens) (UniProt Q15910); experiment: Inhibition of EZH2 (unknown origin) using biotin-labeled histone substrate assessed as residual activity at 50 uM in presence of [3H-Me]SAM by scintillation proximity assay relative to control
Chain of Histone-lysine N-methyltransferase EZH2 (Homo sapiens) (Q15910 whole entry, looked up): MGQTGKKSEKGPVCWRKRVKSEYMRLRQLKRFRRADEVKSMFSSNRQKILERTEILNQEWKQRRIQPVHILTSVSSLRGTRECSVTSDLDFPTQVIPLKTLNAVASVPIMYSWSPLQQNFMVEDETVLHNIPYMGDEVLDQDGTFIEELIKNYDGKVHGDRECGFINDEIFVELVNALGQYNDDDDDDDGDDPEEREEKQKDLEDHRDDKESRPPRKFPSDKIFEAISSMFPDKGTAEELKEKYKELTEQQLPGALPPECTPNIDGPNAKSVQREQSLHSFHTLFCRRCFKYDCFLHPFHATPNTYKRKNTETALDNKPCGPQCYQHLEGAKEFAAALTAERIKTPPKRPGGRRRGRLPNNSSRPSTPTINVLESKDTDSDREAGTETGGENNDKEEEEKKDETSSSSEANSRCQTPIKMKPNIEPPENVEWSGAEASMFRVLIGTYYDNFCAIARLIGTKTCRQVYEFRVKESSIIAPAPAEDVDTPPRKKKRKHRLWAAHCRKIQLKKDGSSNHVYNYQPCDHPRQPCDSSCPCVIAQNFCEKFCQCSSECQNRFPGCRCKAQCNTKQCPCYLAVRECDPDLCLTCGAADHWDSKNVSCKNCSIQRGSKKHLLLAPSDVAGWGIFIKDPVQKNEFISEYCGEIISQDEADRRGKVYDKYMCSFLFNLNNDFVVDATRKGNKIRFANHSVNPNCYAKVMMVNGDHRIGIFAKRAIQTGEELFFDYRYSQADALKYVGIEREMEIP

[4] = biological target: T2, Histone-lysine N-methyltransferase NSD3 (Homo sapiens) (UniProt Q9BZ95); experiment: Inhibition of NSD3 (unknown origin) using biotin-labeled histone substrate assessed as residual activity at 50 uM in presence of [3H-Me]SAM by scintillation proximity assay relative to control
T2 sequence (whole entry): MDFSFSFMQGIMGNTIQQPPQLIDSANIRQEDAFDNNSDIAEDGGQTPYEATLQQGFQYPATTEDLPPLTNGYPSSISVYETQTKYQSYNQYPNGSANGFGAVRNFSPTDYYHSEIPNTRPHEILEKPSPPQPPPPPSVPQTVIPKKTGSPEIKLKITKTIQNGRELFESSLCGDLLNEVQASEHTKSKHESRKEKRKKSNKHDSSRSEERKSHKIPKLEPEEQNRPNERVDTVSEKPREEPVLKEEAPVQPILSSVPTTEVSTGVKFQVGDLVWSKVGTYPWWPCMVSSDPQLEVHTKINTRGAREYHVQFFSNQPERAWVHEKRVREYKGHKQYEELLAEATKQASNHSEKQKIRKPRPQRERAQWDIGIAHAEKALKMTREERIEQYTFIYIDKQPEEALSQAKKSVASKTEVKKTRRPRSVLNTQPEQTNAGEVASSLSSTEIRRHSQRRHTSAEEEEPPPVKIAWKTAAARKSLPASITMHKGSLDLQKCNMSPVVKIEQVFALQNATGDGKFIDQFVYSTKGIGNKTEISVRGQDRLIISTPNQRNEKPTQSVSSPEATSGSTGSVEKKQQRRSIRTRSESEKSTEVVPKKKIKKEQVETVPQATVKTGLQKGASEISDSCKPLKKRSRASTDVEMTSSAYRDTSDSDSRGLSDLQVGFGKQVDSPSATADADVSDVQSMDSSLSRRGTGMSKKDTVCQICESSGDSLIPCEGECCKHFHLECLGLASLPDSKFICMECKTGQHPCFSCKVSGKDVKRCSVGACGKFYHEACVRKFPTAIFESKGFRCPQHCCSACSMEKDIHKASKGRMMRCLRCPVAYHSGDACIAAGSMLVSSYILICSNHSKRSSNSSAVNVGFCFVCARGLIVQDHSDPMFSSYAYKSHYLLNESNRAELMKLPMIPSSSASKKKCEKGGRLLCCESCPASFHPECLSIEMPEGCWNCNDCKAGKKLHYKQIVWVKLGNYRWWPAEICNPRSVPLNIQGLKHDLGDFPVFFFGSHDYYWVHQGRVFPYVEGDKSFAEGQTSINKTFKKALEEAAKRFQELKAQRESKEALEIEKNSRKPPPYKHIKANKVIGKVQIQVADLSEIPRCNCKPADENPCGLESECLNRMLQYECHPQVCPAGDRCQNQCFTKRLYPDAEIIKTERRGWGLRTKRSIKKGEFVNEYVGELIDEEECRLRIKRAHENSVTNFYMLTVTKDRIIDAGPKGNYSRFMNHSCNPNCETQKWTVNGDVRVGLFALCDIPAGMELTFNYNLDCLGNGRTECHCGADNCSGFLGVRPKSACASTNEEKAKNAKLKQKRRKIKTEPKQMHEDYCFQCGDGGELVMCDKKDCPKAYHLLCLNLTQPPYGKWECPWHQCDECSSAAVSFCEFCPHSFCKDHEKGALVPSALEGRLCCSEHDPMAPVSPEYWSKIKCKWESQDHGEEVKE

[5] = biological target: Histone-lysine N-methyltransferase SETDB1 (Homo sapiens) (UniProt Q15047); experiment: Inhibition of SETDB1 (unknown origin) using biotin-labeled histone substrate assessed as residual activity at 50 uM in presence of [3H-Me]SAM by scintillation proximity assay relative to control
[6] = biological target: Histone-lysine N-methyltransferase SUV39H2 (Homo sapiens) (UniProt Q9H5I1); experiment: Inhibition of SUV39H2 (unknown origin) using biotin-labeled histone substrate assessed as residual activity at 50 uM in presence of [3H-Me]SAM by scintillation proximity assay relative to control
Chain of Histone-lysine N-methyltransferase SUV39H2 (Homo sapiens) (Q9H5I1 whole entry): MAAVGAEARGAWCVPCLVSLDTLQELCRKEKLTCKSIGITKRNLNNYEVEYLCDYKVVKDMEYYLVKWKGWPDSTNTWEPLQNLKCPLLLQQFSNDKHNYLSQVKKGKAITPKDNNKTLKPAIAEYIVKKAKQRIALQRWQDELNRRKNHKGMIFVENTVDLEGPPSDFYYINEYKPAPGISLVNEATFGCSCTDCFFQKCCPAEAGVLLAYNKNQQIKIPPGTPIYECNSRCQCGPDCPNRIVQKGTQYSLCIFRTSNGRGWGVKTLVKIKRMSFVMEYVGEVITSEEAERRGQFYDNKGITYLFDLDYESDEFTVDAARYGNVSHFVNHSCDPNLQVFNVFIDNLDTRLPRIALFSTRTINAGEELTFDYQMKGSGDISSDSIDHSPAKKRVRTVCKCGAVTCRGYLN

[7] = biological target: Histone-lysine N-methyltransferase KMT5B (Homo sapiens) (UniProt Q4FZB7); experiment: Inhibition of SUV420H1 (unknown origin) using biotin-labeled histone substrate assessed as residual activity at 50 uM in presence of [3H-Me]SAM by scintillation proximity assay relative to control
Chain of Histone-lysine N-methyltransferase KMT5B (Homo sapiens) (Q4FZB7 whole entry, looked up): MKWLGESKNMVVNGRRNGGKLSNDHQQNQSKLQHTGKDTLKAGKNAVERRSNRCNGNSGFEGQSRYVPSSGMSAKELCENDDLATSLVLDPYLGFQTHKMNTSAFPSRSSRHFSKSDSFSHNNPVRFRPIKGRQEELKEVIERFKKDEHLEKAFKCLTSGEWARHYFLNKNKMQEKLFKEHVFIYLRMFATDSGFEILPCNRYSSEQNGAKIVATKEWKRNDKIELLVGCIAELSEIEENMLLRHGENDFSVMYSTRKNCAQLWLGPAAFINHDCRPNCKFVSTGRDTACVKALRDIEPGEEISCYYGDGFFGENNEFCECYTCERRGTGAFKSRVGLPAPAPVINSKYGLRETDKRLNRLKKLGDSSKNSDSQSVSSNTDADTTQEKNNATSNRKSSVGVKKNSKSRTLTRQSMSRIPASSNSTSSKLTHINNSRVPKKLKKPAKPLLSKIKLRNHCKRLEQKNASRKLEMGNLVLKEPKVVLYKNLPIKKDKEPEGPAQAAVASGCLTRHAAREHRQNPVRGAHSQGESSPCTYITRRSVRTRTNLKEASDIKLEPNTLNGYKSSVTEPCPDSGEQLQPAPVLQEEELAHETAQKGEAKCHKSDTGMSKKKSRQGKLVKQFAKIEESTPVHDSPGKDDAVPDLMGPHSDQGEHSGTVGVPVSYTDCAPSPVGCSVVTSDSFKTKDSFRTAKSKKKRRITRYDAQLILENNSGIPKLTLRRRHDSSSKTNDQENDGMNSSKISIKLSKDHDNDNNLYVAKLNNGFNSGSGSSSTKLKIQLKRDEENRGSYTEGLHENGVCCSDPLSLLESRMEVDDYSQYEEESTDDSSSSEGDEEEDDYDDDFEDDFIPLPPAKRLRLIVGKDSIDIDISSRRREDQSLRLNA

[8] = biological target: Histone-lysine N-methyltransferase PRDM9 (Homo sapiens) (UniProt Q9NQV7); experiment: Inhibition of PRDM9 (unknown origin) using biotin-labeled histone substrate assessed as residual activity at 50 uM in presence of [3H-Me]SAM by scintillation proximity assay relative to control
Chain of Histone-lysine N-methyltransferase PRDM9 (Homo sapiens) (Q9NQV7 whole entry, the tested form may be a part): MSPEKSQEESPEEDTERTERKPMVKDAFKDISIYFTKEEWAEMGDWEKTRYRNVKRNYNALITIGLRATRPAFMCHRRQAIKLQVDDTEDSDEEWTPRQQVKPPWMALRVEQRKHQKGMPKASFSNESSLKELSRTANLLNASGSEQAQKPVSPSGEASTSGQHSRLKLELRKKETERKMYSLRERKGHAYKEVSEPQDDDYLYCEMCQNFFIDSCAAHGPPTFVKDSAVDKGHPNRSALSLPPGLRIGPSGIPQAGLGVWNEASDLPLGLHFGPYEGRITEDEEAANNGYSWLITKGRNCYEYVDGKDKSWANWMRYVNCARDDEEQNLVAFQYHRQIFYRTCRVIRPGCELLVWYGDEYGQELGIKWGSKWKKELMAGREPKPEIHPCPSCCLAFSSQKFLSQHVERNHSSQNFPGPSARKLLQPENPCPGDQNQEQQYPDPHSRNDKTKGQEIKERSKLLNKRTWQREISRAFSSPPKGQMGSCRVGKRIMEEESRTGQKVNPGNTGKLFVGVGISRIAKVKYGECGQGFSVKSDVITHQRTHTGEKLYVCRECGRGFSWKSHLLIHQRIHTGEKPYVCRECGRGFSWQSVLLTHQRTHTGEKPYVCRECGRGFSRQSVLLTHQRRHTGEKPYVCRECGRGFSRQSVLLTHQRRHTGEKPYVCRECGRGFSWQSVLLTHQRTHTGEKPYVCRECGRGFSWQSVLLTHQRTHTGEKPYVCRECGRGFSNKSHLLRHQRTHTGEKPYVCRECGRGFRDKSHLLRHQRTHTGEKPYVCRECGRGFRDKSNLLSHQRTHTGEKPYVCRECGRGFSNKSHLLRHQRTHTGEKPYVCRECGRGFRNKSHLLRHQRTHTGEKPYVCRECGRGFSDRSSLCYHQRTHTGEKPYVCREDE

[9] = biological target: Histone-lysine N-methyltransferase SETD2 (Homo sapiens) (UniProt Q9BYW2); experiment: Inhibition of N-terminal His6-tagged human SETD2 (1347 to 1711 residues) expressed in Escherichia coli Rosseta-2(DE3) cells assessed as residual activity at 50 uM using biotinylated-histone H3 (20 to 50 residues) as substrate in presence of [3H-Me]SAM by scintillation proximity assay relative to control
[10] = biological target: Protein N-lysine methyltransferase METTL21A (Homo sapiens) (UniProt Q8WXB1); experiment: Inhibition of METTL21A (unknown origin) using biotin-labeled histone substrate assessed as residual activity at 50 uM in presence of [3H-Me]SAM by scintillation proximity assay relative to control
Chain of Protein N-lysine methyltransferase METTL21A (Homo sapiens) (Q8WXB1 whole entry): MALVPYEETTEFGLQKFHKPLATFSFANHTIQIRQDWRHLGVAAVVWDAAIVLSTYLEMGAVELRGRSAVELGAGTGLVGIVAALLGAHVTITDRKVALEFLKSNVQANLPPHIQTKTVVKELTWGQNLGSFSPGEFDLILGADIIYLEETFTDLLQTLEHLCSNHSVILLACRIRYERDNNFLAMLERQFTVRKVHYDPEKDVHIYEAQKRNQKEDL

Row | Activity [1] [%] | Activity [2] [%] | Activity [3] [%] | Activity [4] [%] | Activity [5] [%] | Activity [6] [%] | Activity [7] [%] | Activity [8] [%] | Activity [9] [%] | Activity [10] [%] | SMILES
1 | 103 | 104 | 97 | 104 | 94 | 84 | 102 | 103 | 88 | 105 | CN1CCC2(CCCN(C(=O)c3cccc(Br)c3)C2)C1 (stereo not given)
2 | 104 | 105 | 95 | 101 | 101 | 94 | 103 | 107 | 108 | 98 | CN1CCCC12CCN(C(=O)c1cccc(Br)c1)CC2

Continued, compound first:

Row | SMILES | Activity [1] [%] | Activity [2] [%] | Activity [3] [%] | Activity [4] [%] | Activity [5] [%] | Activity [6] [%] | Activity [7] [%] | Activity [8] [%] | Activity [9] [%] | Activity [10] [%]
3 | O=C(c1cccc(Br)c1)N1C[C@H]2CCCN[C@H]2C1 | 103 | 107 | 103 | 100 | 111 | 107 | 105 | 108 | 119 | 94
4 | CN1CCC[C@@H]2CN(C(=O)c3cccc(Br)c3)C[C@@H]21 | 103 | 107 | 90 | 98 | 101 | 101 | 106 | 104 | 104 | 108
5 | O=C(c1cccc(Br)c1)N1CCC[C@@H]2CNC[C@@H]21 | 95 | 109 | 94 | 106 | 109 | 104 | 84 | 102 | 102 | 102
6 | C[N+]1(C)CCCCC12CCN(C(=O)c1cccc(Br)c1)CC2 | 98 | 100 | 90 | 99 | 97 | 114 | 99 | 107 | 102 | 97
